Test results taken from patent US10632134B2, “Cannabinoid receptor modulators” (Arena Pharmaceuticals, Inc., priority 2011, dated 2020).

Tests used:
[1] = tested on: Paclitaxel-induced allodynia; test: Paclitaxel-induced allodynia in Sprague Dawley rats (von Frey assay); assay type: in vivo
Procedure: Example 5: Paclitaxel-induced Allodynia in Sprague Dawley Rats
Therapy however is often associated with the unwanted side affects of painful peripheral neuropathy.
Male Sprague Dawley rats [200-250 g] (Harlan Laboratories Inc., Livermore, Calif.) were housed three per cage and maintained in a humidity-controlled (40-60%) and temperature-controlled (68-72° F.) facility on a 12 h:12 h light/dark cycle (lights on at 6:30 am) with free access to food (Harlan Teklad, Orange, Calif., Rodent Diet 8604) and water. Rats were allowed one week of habituation to the animal facility before starting treatment.
Rats were treated intraperitoneally, with 2 mg/kg of paclitaxel (Sigma Aldrich, Saint Louis, Mo.) in 10% Cremophor vehicle (500 μL) on days 0, 2, 4, and 6.
Tactile allodynia was tested using von Frey filaments. Briefly, the von Frey assay was performed using the standardized up down method with von Frey filaments, that determine the tactile sensitivity of the paw. By applying the increasingly or decreasingly thicker filaments to the paw in a logarithmic scale of actual force, a linear scale of perceived intensity is determined.
Eight days after the start of paclitaxel dosing, a baseline measurement (von Frey assay) was performed prior to dosing of compounds. […] As a positive control, rats were dosed intraperitoneally with 100 mg/kg gabapentin in water. […]

[2] = Dynamic moisture-sorption (DMS) analysis; assay type: physicochemical
Procedure: Example 9: Dynamic Moisture-Sorption Analysis
A dynamic moisture-sorption (DMS) study was conducted using a dynamic moisture-sorption analyzer, VTI Corporation, SGA-100. The instrument was calibrated using polyvinyl pyrrolidone (PVP) and NaCl. Samples were prepared for DMS analysis by placing 5 mg to 20 mg of a sample in a tared sample holder. The sample was placed on the hang-down wire of the VTI balance. A drying step was run, typically at 40° C. and 0.5-1% RH for 1 h. The isotherm temperature is 25° C. Defined % RH holds typically ranged from 10% RH to 90% RH, with intervals of 10 to 20% RII. A % weight change smaller than 0.010% over 10 min, or up to 2 h, whichever occurred first, was required before continuing to the next % RH hold. The water content of the sample equilibrated as described above was determined at each % RH hold.

Row | Weight (% Change) ([2]; Sample RH […], elapsed time 46.6 min, 25.46) | Weight (% Change) ([2]; adsorption, Sample RH 29.94%, elapsed time 71.4 min) | Weight (% Change) ([2]; adsorption, Sample RH 49.86%, elapsed time 91.1 min) | Weight (% Change) ([2]; adsorption, Sample RH 69.77%, elapsed time 111.2 min) | Weight (% Change) ([2]; adsorption, Sample RH 79.70%, elapsed time 129.1 min) | Weight (% Change) ([2]; adsorption, Sample RH 89.72%, elapsed time 160.1 min) | Weight (% Change) ([2]; desorption, Sample RH 10.06%, elapsed time 234.4 min) | Weight (% Change) ([2]; desorption, Sample RH 29.99%, elapsed time 218.6 min) | Weight (% Change) ([2]; desorption, Sample RH 50.07%, elapsed time 200.1 min) | Weight (% Change) ([2]; desorption, Sample RH 70.11%, elapsed time 180.1 min) | Structure (SMILES) | paw withdrawal threshold (PWT) ([1]; 10 mg/kg orally in PEG400, paclitaxel treated rats, von Frey assay 30, 60 and 180 minutes after dosing, in comparison with vehicle and gabapentin) | time of maximum efficacy post-dosing ([1]; 10 mg/kg orally, paclitaxel treated rats, von Frey assay time course) [h] | DMS weight change ([2]; adsorption/desorption isotherm, from about 10% relative humidity (RH) to about 90% RH) | DMS weight change ([2]; after a 10% RH to 90% RH back to 10% RH cycle)
1 |  |  |  |  |  |  |  |  |  |  | CC(C)(CO)NC(=O)c1nn(-c2ccc(F)cc2F)c2c1C[C@H]1C[C@@H]21 [Compound 493, (1aR,5aR)-2-(2,4-Difluoro-phenyl)-1a,2,5,5a-tetrahydro-1H-2,3-diaza-cyclopropa[a]pentalene-4-carboxylic Acid (2-Hydroxy-1,1-dimethyl-ethyl)-amide] | increase | 1 |  | 
2 | 0 | 0.151 | 0.282 | 0.482 | 0.581 | 0.762 | 0.080 | 0.181 | 0.364 | 0.526 | CC(C)(C)[C@@H](CO)NC(=O)c1nn(-c2c[n+]([O-])ccn2)c2c1C[C@@H]1C[C@H]21 [Compound 699 (Anhydrous Form), (1aS,5aS)-2-(4-Oxy-pyrazin-2-yl)-1a,2,5,5a-tetrahydro-1H-2,3-diaza-cyclopropa[a]pentalene-4-carboxylic Acid ((S)-1-Hydroxymethyl-2,2-dimethyl-propyl)-amide] |  |  | 1.0% or less weight change from about 10% relative humidity | (RH) to about 90% RH; and about 0.1% or less weight change
